Measurements as given in paper PMC3242765, “Inhibitors of Alphavirus Entry and Replication Identified with a Stable Chikungunya Replicon Cell Line and Virus-Based Assays” (PLoS ONE, 2011).
Several values for one entry are separate records, joined by “and”; a condition that tells them apart may be missing. Equal values may be shown once. Where a name gives a salt, the structure may show the parent alone.

Assays:
CHIKV replicon = experiment: microbe, parasite or virus in culture; assay type: cell-based, Chikungunya virus (CHIKV)

SMILES | SFV replication % left (surviving fraction, remaining percentage of SFV replication) (SFV-Rluc) | CHIKV replicon % left (CHIKV replicon)
Cc1cc(=O)oc2cc(O)ccc12 [Methylumbelliferone] | 12.0% | 21.1%
CC(=O)Oc1c(C)cc(OCC(O)CNC(C)C)c(C)c1C (stereo not drawn) [Metipranolol] | 46.2% | 100.5%
COCCc1ccc(OCC(O)CNC(C)C)cc1 (stereo not drawn) [Metoprolol tartrate] | 65.7% | 78.2%
Cc1ncc([N+](=O)[O-])n1CCO [Metronidazole] | 69.2% | 89.2%
O.O.O=c1c(O)c(-c2ccc(O)cc2O)oc2cc(O)cc(O)c12 [Morin dihydrate] | 82.9% | 102.6%
O=c1c(O)c(-c2cc(O)c(O)c(O)c2)oc2cc(O)cc(O)c12 [Myricetin] | 2.0% | 49.1%
CC(=O)Nc1ccc(S(N)(=O)=O)cc1 [N-Acetylsulfanilamide] | 63.2% | 104.1%
CC(CN1c2ccccc2Sc2ccccc21)[N+](C)(C)CCO (stereo not drawn) [N-Hydroxyethylpromethazine chloride] | 102.2% | 85.9%
Cc1ccc(C(=O)NS(=O)(=O)c2ccc(N)cc2)cc1C [N-Sulfanilyl-3,4-xylamide] | 72.0% | 100.7%
CC(C)(C)NCC(O)COc1cccc2c1CC(O)C(O)C2 (stereo not drawn) [Nadolol] | 60.5% | 63.3%
CCn1cc(C(=O)O)c(=O)c2ccc(C)nc21 [Nalidixic acid] | 80.4% | 100.4%
COc1ccc2cc([C@H](C)C(=O)O)ccc2c1 [Naproxen] | 92.7% | 89.2%
COc1ccc(C(=O)Cc2c(CCN(C)C)cc3c(c2OC)OCO3)c(C(=O)O)c1OC [Narceine] | 118.3% | 70.7%
NC[C@@H]1O[C@H](O[C@H]2[C@@H](O)[C@H](O[C@@H]3[C@@H](O)[C@H](N)C[C@H](N)[C@H]3O[C@H]3O[C@H](CN)[C@@H](O)[C@H](O)[C@H]3N)O[C@@H]2CO)[C@H](N)[C@@H](O)[C@@H]1O.O=S(=O)(O)O [Neomycin sulfate] | 99.6% | 100.4%
NC(=O)c1cccnc1 [Nicotinamide] | 116.9% | 99.1%
O=C1CN=C(c2ccccc2)c2cc([N+](=O)[O-])ccc2N1 [Nitrazepam] | 46.0% | 98.8%
O=C1CN(/N=C/c2ccc([N+](=O)[O-])o2)C(=O)N1 [Nitrofurantoin] | 58.9% | 60.9%
NC(=O)N/N=C/c1ccc([N+](=O)[O-])o1 [Nitrofurazone] | 83.7% | 102.1%
CC(N)C(O)c1ccc(O)c(O)c1 (stereo not drawn) [Nordefrin hydrochloride] | 118.0% | 104.2%
CC(Cc1ccc(O)c(O)c1)C(C)Cc1ccc(O)c(O)c1 (stereo not drawn) [Nordihydroguaiaretic acid] | 35.6% | 28.3%
C#C[C@]1(O)CC[C@H]2[C@@H]3CCC4=CC(=O)CC[C@@H]4[C@H]3CC[C@@]21C [Norethindrone] | 107.8% | 97.1%
NCC(O)c1cccc(O)c1 (stereo not drawn) [Norfenefrine] | 126.3% | 96.6%
CNCCC=C1c2ccccc2CCc2ccccc21 [Nortriptyline hydrochloride] | 5.3% | 29.1%
COc1ccc2c(c1OC)C(=O)O[C@@H]2[C@H]1c2c(cc3c(c2OC)OCO3)CCN1C [Noscapine] | 103.5% | 78.4%
NCC(O)c1ccc(O)cc1 (stereo not drawn) [Octopamine hydrochloride] | 102.1% | 88.4%
CCCCCCCCOC(=O)c1cc(O)c(O)c(O)c1 [Octyl gallate] | 134.4% | 94.1%
C[C@@H]1O[C@@H](O[C@H]2C[C@@H](O)[C@]3(CO)[C@H]4[C@H](O)C[C@]5(C)[C@@H](C6=CC(=O)OC6)CC[C@]5(O)[C@@H]4CC[C@]3(O)C2)[C@H](O)[C@H](O)[C@H]1O [Ouabain] | 90.9% | 89.2%

SMILES | SFV replication % left (surviving fraction, remaining percentage of SFV replication) (SFV-Rluc) | CHIKV replicon % left (CHIKV replicon)
O=C1Nc2ccc(Cl)cc2C(c2ccccc2)=NC1O (stereo not drawn) [Oxazepam] | 79.1% | 80.3%
C=CCOc1ccccc1OCC(O)CNC(C)C (stereo not drawn) [Oxprenolol hydrochloride] | 92.4% | 84.3%
CCCCC1C(=O)N(c2ccccc2)N(c2ccc(O)cc2)C1=O (stereo not drawn) [Oxyphenbutazone] | 84.8% | 100.4%
COc1ccc(Cc2nccc3cc(OC)c(OC)cc23)cc1OC [Papaverine] | 99.3% | 78.2%
CC(C)(C)NC[C@H](O)COc1ccccc1C1CCCC1 [Penbutolol] | 45.0% | 39.4%
CCCC(C)C1(CC)C(=O)NC(=O)NC1=O (stereo not drawn) [Pentobarbital] | 70.5% | 104.3%
CCOc1ccc(NC(C)=O)cc1 [Phenacetin] | 71.8% and 80.6% | 100.8% and 94.3%
CCC1(c2ccccc2)C(=O)NC(=O)NC1=O [Phenobarbital sodium] | 88.1% | 70.8%
CCC1(c2ccccc2)C(=O)NC(=O)NC1=O [Phenobarbital] | 58.6% | 43.2%
O=C(Oc1ccccc1)c1ccccc1O [Phenyl salicylate] | 118.2% | 94.3%
CCCCC1C(=O)N(c2ccccc2)N(c2ccccc2)C1=O [Phenylbutazone] | 96.7% | 100.5%
CNC(C)Cc1ccc(O)cc1.CNC(C)Cc1ccc(O)cc1.O=S(=O)(O)O (stereo not drawn) [Pholedrine sulfate] | 92.8% | 81.5%
O=C(O)c1ccccc1C(=O)O [Phthalic acid] | 143.7% | 96.6%
CC(=O)NS(=O)(=O)c1ccc(NC(=O)c2ccccc2C(=O)O)cc1 [Phthalylsulfacetamide] | 110.6% | 85.4%
O=C(O)c1ccccc1C(=O)Nc1ccc(S(=O)(=O)Nc2nccs2)cc1 [Phthalylsulfathiazole] | 113.7% | 100.5%
CC(C)NCC(O)COc1cccc2[nH]ccc12 (stereo not drawn) [Pindolol] | 86.2% | 72.1%
CC(=O)Nc1ccc(OCC(O)CNC(C)C)cc1 (stereo not drawn) [Practolol] | 117.3% | 61.5%
C[C@]12C=CC(=O)C=C1CC[C@@H]1[C@@H]2[C@@H](O)C[C@@]2(C)[C@H]1CC[C@]2(O)C(=O)CO [Prednisolone] | 104.2% | 84.3%
C[C@]12C=CC(=O)C=C1CC[C@@H]1[C@@H]2C(=O)C[C@@]2(C)[C@H]1CC[C@]2(O)C(=O)CO [Prednisone] | 85.0% | 54.4%
CCC1(c2ccccc2)C(=O)NCNC1=O [Primidone] | 127.1% | 41.6%
CCN(CC)CCNC(=O)c1ccc(N)cc1 [Procainamide hydrochloride] | 89.0% | 100.4%
CCN(CC)CCOC(=O)c1ccc(N)cc1 [Procaine hydrochloride] | 105.4% | 84.3%
CN1CCN(CCCN2c3ccccc3Sc3ccc(Cl)cc32)CC1 [Prochlorperazine] | 51.4% | 71.9%
Oc1cc(O)c2c(c1)O[C@H](c1ccc(O)c(O)c1)[C@H](O)[C@H]2c1c(O)cc(O)c2c1O[C@H](c1ccc(O)c(O)c1)[C@@H](O)C2 [Procyanidin B1] | 128.1% | 104.7%
Oc1cc(O)c2c(c1)O[C@H](c1ccc(O)c(O)c1)[C@H](O)[C@H]2c1c(O)cc(O)c2c1O[C@H](c1ccc(O)c(O)c1)[C@H](O)C2 [Procyanidin B2] | 93.7% | 101.9%
CC(CN1c2ccccc2Sc2ccccc21)N(C)C (stereo not drawn) [Promethazine hydrochloride] | 48.8% | 39.2%
CC(C)NCC(O)c1ccc2ccccc2c1 (stereo not drawn) [Pronethalol] | 62.9% | 29.9%
